# In patent US20020155172A1, “Methods and compounds for decreasing cell toxicity or death” (priority 2000, published 2002):
# Structures can show the parent of a compound that is named as a salt. Where two headings read alike, the source gives them in different places. Peptide text beside a SMILES is read from it. * marks the point of attachment. Cbz = O=C(OCc1ccccc1)*
# Columns and labels:
# [1] = system: HeLa cells co-transfected with a luciferase construct together with Q79-GFP; assay: Protein synthesis by luciferase activity in Q79 expressing HeLa cells; type: cell-based
# [2] = system: Q79-GFP aggregates; assay: Decrease of pre-formed Q79-GFP aggregates in vitro; type: biochemical; settings: 100 μM each; visually examined
# Description: Q79-GFP was expressed and purified from bacteria using standard molecular biology techniques. These fusion proteins form aggregates in vitro which can be viewed under an inverted fluorescence microscope. The Q79-GFP aggregates were administered Congo red (1 nM to 100 μM) and the ability of Congo red to decrease the aggregate was visually assessed.
# This assay was also carried out on Q79-GFP aggregates that were administered compounds known to disrupt other types of aggregates, for example, beta-amyloid fibril aggregates. The Q79-GFP aggregates were administered Iota-carrageenan, dextran, minocycline, rolitetracycline, or Chrysamine G Congo red (100 μM each), and visually examined for the effect of each compound on disruption of the aggregate, as well as the density and size of the aggregates.
# [3] = system: HeLa cells transfected with a Q79-GFP construct; assay: Polyglutamine-induced cell death in HeLa cells; type: cell-based; settings: Q79-GFP, compound added six hours after transfection, 1 nM to 100 μM (FIG. 4A: 100 μM), seventy-two hours post-transfection
# Description: FIG. 4A is two graphs showing the effect of Congo red, tetracyclines, and sulfated polyanions on polyglutamine-induced cell death in, each graph representing a separate experiment. HeLa cells transfected with a Q79-GFP construct were treated with 100 μM of minocycline (mino), Chrysamine G (CG), Rolitetracycline (Ro), iota carrageenan (iota), dextran 500 (dextran), or Congo red (CR), six hours after transfection. The amount of cell death was determined 48 hours after transfection by morphological criteria as previously described (Sanchez et al., supra).
# In a cell expressing Q79-GFP polypeptides, polyglutamine aggregates are formed and the cell dies by apoptosis (Sanchez, supra). Cell viability was determined by morphological criteria characteristic of apoptosis, including cell blebbing, shrinking. Total cell lysates and tissue homogenates were obtained using Buffer A: 1% triton in PBS, containing 10 μg/ml DNAse and protease inhibitors; leupeptin 20 μg/ml, aprotinin 20 u/ml, and PMSF 100 mM. The proteins were separated by 12% SDS/PAGE and transferred to PVDF Immobilon membrane (Millipore, Inc). Antibodies used included rabbit polyclonal antibodies; EM48 (Li et al., Mol. Neurobiol. 20:111-124, 2000) anti-heat shock proteins 40 and 70 (Stressgen, Co.), and rat monoclonal anti-caspase-8 antibody.
# These effects were determined by visual inspection of GFP-positive cells under an inverted fluorescence microscope. In addition, the occurrence of apoptosis of these transfected cell samples was confirmed by staining the cells with trypan blue, propidium iodide, or Hoescht 33342 to examine the cellular or nuclear morphology.
# Compounds that disrupt other types of aggregates, for example, amyloid fibril aggregates were tested for their ability to disrupt pre-formed polyglutamine aggregates. HeLa Cells were transfected with a Q79-GFP construct. Six hours later, Iota-carrageenan, dextran, minocycline, rolitetracycline, and Chrysamine G (1 nM to 100 μM) were each incubated with the cells. Seventy-two hours post-transfection, the cells were evaluated for the occurrence of cell death, by visual inspection under an inverted fluorescence microscope.
# [4] = system: GST-Q81 beads; assay: Chemical absorption assay, Q81; type: binding; settings: 25 μM of each (FIG. 6B)
# Description: FIG. 6B is a graph of the percent of binding of various compounds to amyloid-like Q81 aggregates measured using a chemical absorption assay. The anti-amyloid compounds minocycline, Chrysamine G, Rolitetracycline, iota carrageenan, dextran 500 (dextran), or Congo red (25 μM of each) were pre-absorbed with Q81 GST recombinant protein and the percentage absorbance of the compound remaining in the supernatant after absorption with GST-Q81 beads is plotted on the y-axis.
# To determine if Congo red and its derivatives directly bind to expanded polyglutamine aggregates, we designed a chemical absorption assay. This assay measures the remaining Congo red in the supernatant after incubating the supernatant with GST-tagged polyglutamine beads, and removing the GST-polyglutamine beads by centrifugation. This assay was carried out as follows. Recombinant protein GST-Q19, GST-Q62, and GST-Q81 (containing 19, 62, and 81 polyglutamines, respectively) was purified from E. coli by glutathione beads. After several washes with PBS containing protease inhibitors, the beads were allowed to settle to the bottom of the tube at 24° C. for 10 minutes. The polyglutamine-bound beads were aliquoted and diluted with two volumes of 10 μg/ml of Congo red in PBS. The beads were mixed and centrifuged at 15,000 rpm for 2 minutes and the supernatant was removed and diluted 1:100. The percentage absorbance of the compound remaining in the supernatant after absorption with the GST-polyQ beads was then detected. In addition, Congo red- or PBS-only treated polyglutamine polypeptide bead pellets were washed three times with 100 volumes of PBS and then the protein was separated by 12% polyacrylamide gels and immunoblotted as mentioned above. Some blots were used for immunostaining with anti-polyglutamine antibody (EM48). Other blots were left unstained to visualize the red color of Congo red that entered the gel along with the polyglutamine protein.
# Binding of the above-identified compounds to amyloid-like Q81 aggregates was also assessed by a chemical absorption assay. The compounds indicated in FIG. 19 (25 μM of each) were pre-absorbed with a Q81 GST recombinant protein and the percentage absorbance of the compound remaining in the supernatant after absorption with GST-Q81 beads was then detected.
# [5] = system: non-transfected HeLa cells; assay: Total cellular protein degradation; type: cell-based; settings: Congo red 100 μM, ZVAD 100 μM, MG132 10 μM; H3-tyrosine release, 0 to 180 minutes
# Description: FIG. 8C is a graph of the effect of effect of Congo red, ZVAD, or the proteosome inhibitor MG132 on total cellular protein degradation in non-transfected HeLa cells.
# To rule out the possibility that Congo red may have an effect on protein degradation in general, we tested the effect of Congo red on proteosome degradation. Rates of total cellular protein degradation experiments, from cells seeded in 12 well dishes at 2×10^4, treated with Congo red (100 μM), ZVAD (100 μM), or the proteosome inhibitor MG132 (10 μM) and labeled with 5 μCi/ml of H^3-tyrosine for 1 hour. One hundred microliter culture medium aliquots were collected at 0, 30, 60, 90, 120, and 180 minute time points, and the levels of H^3-tyrosine were determined using an LS6000 scintillation counter (Beckman, Co).
# [6] = system: cells; primary neurons; assay: Compound toxicity in cells; type: cell-based
# [7] = Q79 expressing HeLa cells, various concentrations
compound,measurement,setting,value
C[C@H]1C[C@@H]2[C@H]([C@@H](O)C[C@@]3(C)[C@H]2CC[C@]3(O)C(=O)COC(=O)CCC(=O)O)[C@@]2(C)C=CC(=O)C=C12 [6a-methylprednisolone 21-hemisuccinate],protection against inhibition of protein synthesis (luciferase activity),[1]; [7],found to protect against inhibition of protein synthesis
O=C(O)c1cc(/N=N/c2ccc(-c3ccc(/N=N/c4ccc(O)c(C(=O)O)c4)cc3)cc2)ccc1O [Chrysamine G],dissolution or disruption of pre-formed expanded polyglutamine repeat aggregates,[2],detected only after Congo red addition and daunomycin addition
same,Polyglutamine-induced Cell Death,[3],+++ (Each + indicates approximately 20% cell death.)
same,binding to 81-repeat polyglutamine polypeptide,[4],binds to expanded polyglutamines
N[C@@H]1CONC1=O [D-cycloserine],protection against inhibition of protein synthesis (luciferase activity),[1]; [7],found to protect against inhibition of protein synthesis
CC(C)C[C@@H](C=O)NC(=O)[C@H](CC(C)C)NC(=O)[C@H](CC(C)C)NC(=O)OCc1ccccc1 [MG132] (Cbz-Leu-Leu-Leu-aldehyde),general protein degradation,[5],inhibited
CCCCCCCCC(=O)NCc1ccc(O)c(OC)c1 [N-vanillylnonanmide],protection against inhibition of protein synthesis (luciferase activity),[1],found to protect against inhibition of protein synthesis
Cn1cnc([N+](=O)[O-])c1Sc1ncnc2nc[nH]c12 [azathioprine],protection against inhibition of protein synthesis (luciferase activity),[1]; [7],found to protect against inhibition of protein synthesis
CC(C)C[C@H]1C(=O)N2CCC[C@H]2[C@]2(O)O[C@](NC(=O)[C@@H]3C=C4c5cccc6[nH]c(Br)c(c56)C[C@H]4N(C)C3)(C(C)C)C(=O)N12 [bromocriptine mesylate],protection against inhibition of protein synthesis (luciferase activity),"[1]; […], various concentrations",found to protect against inhibition of protein synthesis
"COc1cccc2c1C(=O)c1c(O)c3c(c(O)c1C2=O)C[C@@](O)(C(C)=O)C[C@@H]3O[C@H]1C[C@H](N)[C@H](O)[C@H](C)O1 [daunomycin, reference compound]",compound toxicity in cells,[6],highly toxic to cells
same,dissolution or disruption of pre-formed expanded polyglutamine repeat aggregates,[2],dissolution or disruption of pre-formed expanded polyglutamine repeat aggregates were detected
C[C@H]1O[C@@H](O[C@H]2[C@@H](O)C[C@H](O[C@H]3[C@@H](O)C[C@H](O[C@H]4CC[C@@]5(C)[C@H](CC[C@@H]6[C@@H]5C[C@@H](O)[C@]5(C)[C@@H](C7=CC(=O)OC7)CC[C@]65O)C4)O[C@@H]3C)O[C@@H]2C)C[C@H](O)[C@@H]1O [digoxin],protection against inhibition of protein synthesis (luciferase activity),"[1]; […], various concentrations",found to protect against inhibition of protein synthesis
O=C(CCCN1CCC(O)(c2ccc(Cl)cc2)CC1)c1ccc(F)cc1 [haloperidol],protection against inhibition of protein synthesis (luciferase activity),[1]; [7],found to protect against inhibition of protein synthesis
C[C@]12CCC(=O)C=C1CC[C@@H]1[C@@H]2[C@@H](O)C[C@@]2(C)[C@H]1CC[C@]2(O)C(=O)CO [hydrocortisone],protection against inhibition of protein synthesis (luciferase activity),[1]; [7],found to protect against inhibition of protein synthesis
[O]=[Mg] [magnesium oxide],protection against inhibition of protein synthesis (luciferase activity),"[1]; […], various concentrations",found to protect against inhibition of protein synthesis
CN(C)c1ccc(O)c2c1C[C@H]1C[C@H]3[C@H](N(C)C)C(O)=C(C(N)=O)C(=O)[C@@]3(O)C(O)=C1C2=O [minocycline],Polyglutamine-induced Cell Death,[3],+++ (Each + indicates approximately 20% cell death.)
COc1ccc2cc(CCC(C)=O)ccc2c1 [nabumetone],protection against inhibition of protein synthesis (luciferase activity),[1]; [7],found to protect against inhibition of protein synthesis
Nc1ccc(/N=N/c2ccccc2)c(N)n1 [phenazopyridine],protection against inhibition of protein synthesis (luciferase activity),[1]; [7],found to protect against inhibition of protein synthesis
CCC1(c2ccccc2)C(=O)NCNC1=O [primidone],protection against inhibition of protein synthesis (luciferase activity),[1]; [7],found to protect against inhibition of protein synthesis
CN(C)[C@@H]1C(O)=C(C(=O)NCN2CCCC2)C(=O)[C@@]2(O)C(O)=C3C(=O)c4c(O)cccc4[C@@](C)(O)[C@H]3C[C@@H]12 [rolitetracycline],Polyglutamine-induced Cell Death,[3],+++ (Each + indicates approximately 20% cell death.)
R-(−)-deprenyl hydrochloride,protection against inhibition of protein synthesis (luciferase activity),"[1]; […], various concentrations",found to protect against inhibition of protein synthesis
dextran,dissolution or disruption of pre-formed expanded polyglutamine repeat aggregates,[2],detected only after Congo red addition and daunomycin addition
same,Polyglutamine-induced Cell Death,[3],+++ (Each + indicates approximately 20% cell death.)
same,binding to 81-repeat polyglutamine polypeptide,[4],binds to expanded polyglutamines
iota-carrageenan,dissolution or disruption of pre-formed expanded polyglutamine repeat aggregates,[2],detected only after Congo red addition and daunomycin addition
same,Polyglutamine-induced Cell Death,[3],+++ (Each + indicates approximately 20% cell death.)
same,binding to 81-repeat polyglutamine polypeptide,[4],binds to expanded polyglutamines
neostigmine methyl ether,protection against inhibition of protein synthesis (luciferase activity),"[1]; […], various concentrations",found to protect against inhibition of protein synthesis
